These results are taken from patent US10604535B2, “Compounds, compositions and methods” (Denali Therapeutics Inc., priority 2016, dated 2020).

One assay addresses GST-hRIPK1 (8-327) (Homo sapiens (Human), UniProt Q13546). The assay is described as follows: Fluorescent Polarization Binding (FP Binding) assay.
Assay [1] deals with FADD-deficient Jurkat cells. The assay is described as follows: Cellular necroptosis assay (human TNFα-induced necrosis, CellTiter-Glo). The following applies: 48 h, TNFα 10 ng/mL, read-out: Cell IC50. Type of assay: cell-based.

Read-outs that look alike come from different tables or passages of the source.

Sequence of GST-hRIPK1 (8-327) (Q13546 8-327): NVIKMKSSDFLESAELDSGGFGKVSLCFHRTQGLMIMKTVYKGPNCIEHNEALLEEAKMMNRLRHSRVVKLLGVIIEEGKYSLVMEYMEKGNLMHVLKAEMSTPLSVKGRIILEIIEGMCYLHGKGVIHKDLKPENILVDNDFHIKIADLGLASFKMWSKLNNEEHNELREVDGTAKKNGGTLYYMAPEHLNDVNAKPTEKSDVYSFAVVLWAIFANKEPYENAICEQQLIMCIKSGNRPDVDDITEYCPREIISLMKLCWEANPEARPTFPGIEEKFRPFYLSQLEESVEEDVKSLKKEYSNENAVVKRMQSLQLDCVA

On to `CN1C(=O)[C@@H](NC(=O)c2cc(Cc3ccccc3)on2)CCc2nccnc21` [Example 188, (S)-5-benzyl-N-(5-methyl-6-oxo-6,7,8,9-tetrahydro-5H-pyrazino[2,3-b]azepin-7-yl)isoxazole-3-carboxamide], for which the IC50 on GST-hRIPK1 (8-327) lay in the range of 0.1 to 1000 nM; in assay [1] (Homo sapiens, Jurkat), 0.1 to 1000 nM.
`CN1C(=O)[C@@H](NC(=O)c2nn(Cc3cccc(F)c3)cc2F)COc2cccnc21` [Example 135, (S)-4-Fluoro-1-(3-fluorobenzyl)-N-(5-methyl-4-oxo-2,3,4,5-tetrahydropyrido[3,2-b][1,4]oxazepin-3-yl)-1H-pyrazole-3-carboxamide]: the IC50 on GST-hRIPK1 (8-327) was 0.1 to 1000 nM; in assay [1] (Homo sapiens, Jurkat), 0.1 to 1000 nM.
In the case of `[2H]C([2H])([2H])N1C(=O)[C@@H](NC(=O)c2nn(Cc3ccccc3)cc2F)[C@H]2C[C@H]2c2cc(C#N)ccc21` [Example 206, 1-benzyl-N-((1aS,2S,8bR)-7-cyano-4-trideuteriomethyl-3-oxo-1,1a,2,3,4,8b-hexahydrobenzo[b]cyclopropa[d]azepin-2-yl)-4-fluoro-1H-pyrazole-3-carboxamide], the concentration for half-maximal inhibition (IC50) lay in the range of 0.1 to 1000 nM on GST-hRIPK1 (8-327) and 0.1 to 1000 nM in assay [1] (Homo sapiens, Jurkat).
Turning to `CN1C(=O)[C@@H](NC(=O)c2cc(Oc3ccccc3F)ccn2)[C@H]2C[C@H]2c2cccnc21` [Example 100A, 4-(2-fluorophenoxy)-N-((1aS,2S,8bR)-4-methyl-3-oxo-1,1a,2,3,4,8b-hexahydrocyclopropa[d]pyrido[2,3-b]azepin-2-yl)picolinamide], the 50% inhibitory concentration (IC50) at GST-hRIPK1 (8-327) lay within 0.1 to 1000 nM; in assay [1] (Homo sapiens, Jurkat) it was 0.1 to 1000 nM.
Regarding `[2H]C([2H])([2H])N1C(=O)[C@@H](NC(=O)c2nnc(Cc3ccccc3)o2)[C@@H](C)Oc2cccnc21` [Example 174, 5-benzyl-N-((2R,3S)-2-methyl-5-trideuteriomethyl-4-oxo-2,3,4,5-tetrahydropyrido[3,2-b][1,4]oxazepin-3-yl)-1,3,4-oxadiazole-2-carboxamide], the half-inhibitory concentration (IC50) at GST-hRIPK1 (8-327) is 0.1 to 1000 nM; in assay [1] (Homo sapiens, Jurkat), 0.1 to 1000 nM.
Take `C[C@H]1Oc2cc(S(C)(=O)=O)cnc2N(C)C(=O)[C@H]1NC(=O)c1nnc(Cc2ccccc2)[nH]1` [Example 147, 5-benzyl-N-((2R,3S)-2,5-dimethyl-8-(methylsulfonyl)-4-oxo-2,3,4,5-tetrahydropyrido[3,2-b][1,4]oxazepin-3-yl)-4H-1,2,4-triazole-3-carboxamide]: the IC50 on GST-hRIPK1 (8-327) was 0.1 to 1000 nM; in assay [1] (Homo sapiens, Jurkat), 0.1 to 1000 nM.
With `CN1C(=O)[C@@H](NC(=O)c2nnc(Cc3cc(F)cc(C#N)c3)[nH]2)COc2cccnc21` [Example 162, (S)-5-(3-cyano-5-fluorobenzyl)-N-(5-methyl-4-oxo-2,3,4,5-tetrahydropyrido[3,2-b][1,4]oxazepin-3-yl)-4H-1,2,4-triazole-3-carboxamide], the 50% inhibitory concentration (IC50) at GST-hRIPK1 (8-327) is 0.1 to 1000 nM; in assay [1] (Homo sapiens, Jurkat), 0.1 to 1000 nM.
`CN1C(=O)[C@@H](NC(=O)c2cc(F)n(Cc3ccc(F)cc3)n2)COc2cccnc21` [Example 166, (S)-5-fluoro-1-(4-fluorobenzyl)-N-(5-methyl-4-oxo-2,3,4,5-tetrahydropyrido[3,2-b][1,4]oxazepin-3-yl)-1H-pyrazole-3-carboxamide]: the half-inhibitory concentration (IC50) at GST-hRIPK1 (8-327) was 0.1 to 1000 nM; in assay [1] (Homo sapiens, Jurkat), 0.1 to 1000 nM.
Take `C[C@H]1Oc2cccnc2N(C)C(=O)[C@H]1NC(=O)c1nnc(C2(c3ccccc3)CC2)o1` [Example 138, N-((2R,3S)-2,5-dimethyl-4-oxo-2,3,4,5-tetrahydropyrido[3,2-b][1,4]oxazepin-3-yl)-5-(1-phenylcyclopropyl)-1,3,4-oxadiazole-2-carboxamide]: the IC50 at GST-hRIPK1 (8-327) was in the range of 0.1 to 1000 nM; in assay [1] (Homo sapiens, Jurkat), 0.1 to 1000 nM.
Regarding `O=C(N[C@H]1COc2cccnc2NC1=O)c1ncc(Cc2ccccc2)s1` [Example 123, (S)-5-benzyl-N-(4-oxo-2,3,4,5-tetrahydropyrido[3,2-b][1,4]oxazepin-3-yl)thiazole-2-carboxamide], the IC50 at GST-hRIPK1 (8-327) was 0.1 to 1000 nM; in assay [1] (Homo sapiens, Jurkat) it was 0.1 to 1000 nM.
In the case of `CN1C(=O)[C@@H](NC(=O)c2nn(Cc3ccccc3F)cc2F)COc2cccnc21` [Example 133, (S)-4-Fluoro-1-(2-fluorobenzyl)-N-(5-methyl-4-oxo-2,3,4,5-tetrahydropyrido[3,2-b][1,4]oxazepin-3-yl)-1H-pyrazole-3-carboxamide], the IC50 lay within 0.1 to 1000 nM on GST-hRIPK1 (8-327) and 0.1 to 1000 nM in assay [1] (Homo sapiens, Jurkat).
For the compound `CN1C(=O)[C@@H](NC(=O)c2nn(Cc3ccccc3)cc2F)CCc2cccnc21` [Example 111B, (S)-1-benzyl-4-fluoro-N-(9-methyl-8-oxo-6,7,8,9-tetrahydro-5H-pyrido[2,3-b]azepin-7-yl)-1H-pyrazole-3-carboxamide], the IC50 fell in the range of 0.1 to 1000 nM on GST-hRIPK1 (8-327) and 0.1 to 1000 nM in assay [1] (Homo sapiens, Jurkat).
Consider `CN1C(=O)[C@@H](NC(=O)c2nn(Cc3cccc(C#N)c3)cc2F)CCc2cccnc21` [Example 152B, (S)-1-(3-cyanobenzyl)-4-fluoro-N-(9-methyl-8-oxo-6,7,8,9-tetrahydro-5H-pyrido[2,3-b]azepin-7-yl)-1H-pyrazole-3-carboxamide], for which the half-maximal inhibitory concentration (IC50) at GST-hRIPK1 (8-327) was 0.1 to 1000 nM; in assay [1] (Homo sapiens, Jurkat), 0.1 to 1000 nM.
Take `C[C@H]1Oc2cccnc2N(C)C(=O)[C@H]1NC(=O)c1ncn(Cc2ccccc2)n1` [Example 136, 1-Benzyl-N-((2R,3S)-2,5-dimethyl-4-oxo-2,3,4,5-tetrahydropyrido[3,2-b][1,4]oxazepin-3-yl)-1H-1,2,4-triazole-3-carboxamide]: the half-inhibitory concentration (IC50) at GST-hRIPK1 (8-327) lay within 0.1 to 1000 nM; in assay [1] (Homo sapiens, Jurkat), 0.1 to 1000 nM.
In the case of `Cc1nc2c(s1)CC[C@H](NC(=O)c1nnc(Cc3ccccc3)o1)C(=O)N2C` [Example 200, (S)-5-benzyl-N-(2,4-dimethyl-5-oxo-5,6,7,8-tetrahydro-4H-thiazolo[4,5-b]azepin-6-yl)-1,3,4-oxadiazole-2-carboxamide], the IC50 on GST-hRIPK1 (8-327) lay within 0.1 to 1000 nM; in assay [1] (Homo sapiens, Jurkat), 0.1 to 1000 nM.
Turning to `N#Cc1cccc(Cc2nnc(C(=O)N[C@@H]3C(=O)Nc4c(F)cc(F)cc4[C@@H]4C[C@H]34)[nH]2)c1` [Example 181B, 5-(3-cyanobenzyl)-N-((1aS,2S,8bR)-5,7-difluoro-3-oxo-1,1a,2,3,4,8b-hexahydrobenzo[b]cyclopropa[d]azepin-2-yl)-4H-1,2,4-triazole-3-carboxamide], the IC50 on GST-hRIPK1 (8-327) lay within 0.1 to 1000 nM; in assay [1] (Homo sapiens, Jurkat) it was 0.1 to 1000 nM.
On to `O=C(N[C@H]1CC2(CC2)c2cc(F)cc(F)c2NC1=O)c1nnc(Cc2ccccc2)[nH]1` [Example 103B, (S)-5-benzyl-N-(7,9-difluoro-2-oxo-1,2,3,4-tetrahydrospiro[benzo[b]azepine-5,1′-cyclopropan]-3-yl)-4H-1,2,4-triazole-3-carboxamide], for which the IC50 on GST-hRIPK1 (8-327) is 0.1 to 1000 nM; in assay [1] (Homo sapiens, Jurkat), 0.1 to 1000 nM.
In the case of `O=C(N[C@H]1CCc2ccccc2-n2ccnc21)c1cc(Oc2ccccc2F)cnn1` [Example 116, (S)—N-(5,6-dihydro-4H-benzo[f]imidazo[1,2-a]azepin-4-yl)-5-(2-fluorophenoxy)pyridazine-3-carboxamide], the IC50 on GST-hRIPK1 (8-327) fell in the range of 0.1 to 1000 nM; in assay [1] (Homo sapiens, Jurkat), 0.1 to 1000 nM.
Consider `CN1C(=O)[C@@H](NC(=O)c2nc(C#N)c(Cc3ccccc3)s2)COc2cccnc21` [Example 151, (S)-5-benzyl-4-cyano-N-(5-methyl-4-oxo-2,3,4,5-tetrahydropyrido[3,2-b][1,4]oxazepin-3-yl)thiazole-2-carboxamide], for which the IC50 is 0.1 to 1000 nM on GST-hRIPK1 (8-327) and 0.1 to 1000 nM in assay [1] (Homo sapiens, Jurkat).
As for “(S)-1-(2-cyanobenzyl)-4-fluoro-N-(5-methyl-4-oxo-2,3,4,5-tetrahydropyrido[3,2-b][1,4]oxazepin-3-yl)-1H-pyrazole-3-carboxamide [Example 153]”, the IC50 (on GST-hRIPK1 (8-327); in assay [1]) was 0.1 to 1000 nM each time.
Turning to `C[C@H]1Oc2cccnc2N(C)C(=O)[C@H]1NC(=O)c1cn(Cc2ccccc2)cn1` [Example 140, 1-Benzyl-N-((2R,3S)-2,5-dimethyl-4-oxo-2,3,4,5-tetrahydropyrido[3,2-b][1,4]oxazepin-3-yl)-1H-imidazole-4-carboxamide], the IC50 on GST-hRIPK1 (8-327) was 0.1 to 1000 nM; in assay [1] (Homo sapiens, Jurkat), 0.1 to 1000 nM.
Turning to `Cc1ncccc1Cn1cc(F)c(C(=O)N[C@H]2CCc3nccnc3N(C)C2=O)n1` [Example 182B, (S)-4-fluoro-N-(5-methyl-6-oxo-6,7,8,9-tetrahydro-5H-pyrazino[2,3-b]azepin-7-yl)-1-((2-methylpyridin-3-yl)methyl)-1H-pyrazole-3-carboxamide], the IC50 was 0.1 to 1000 nM at GST-hRIPK1 (8-327) and 0.1 to 1000 nM in assay [1] (Homo sapiens, Jurkat).
For the compound `CN1C(=O)[C@@H](NC(=O)c2nn(Cc3cncc(C#N)c3)cc2F)COc2cccnc21` [Example 168, (S)-1-((5-cyanopyridin-3-yl)methyl)-4-fluoro-N-(5-methyl-4-oxo-2,3,4,5-tetrahydropyrido[3,2-b][1,4]oxazepin-3-yl)-1H-pyrazole-3-carboxamide], the IC50 at GST-hRIPK1 (8-327) is 0.1 to 1000 nM; in assay [1] (Homo sapiens, Jurkat), 0.1 to 1000 nM.
As for `CN1C(=O)[C@@H](NC(=O)c2nnc(Cc3ccccc3)[nH]2)COc2cnccc21` [Example 41, (S)-5-benzyl-N-(1-methyl-2-oxo-1,2,3,4-tetrahydropyrido[3,4-b][1,4]oxazepin-3-yl)-4H-1,2,4-triazole-3-carboxamide], the IC50 was in the range of 0.1 to 1000 nM at GST-hRIPK1 (8-327) and 0.1 to 1000 nM in assay [1] (Homo sapiens, Jurkat).
As for `CN1C(=O)[C@@H](NC(=O)c2nnc(Cc3ccccc3)[nH]2)CCc2c1cnn2C` [Example 101B, (S)-5-benzyl-N-(1,4-dimethyl-5-oxo-1,4,5,6,7,8-hexahydropyrazolo[4,3-b]azepin-6-yl)-4H-1,2,4-triazole-3-carboxamide], the IC50 on GST-hRIPK1 (8-327) was in the range of 0.1 to 1000 nM; in assay [1] (Homo sapiens, Jurkat), 0.1 to 1000 nM.
Take `CN1C(=O)[C@@H](NC(=O)c2nn(Cc3ccc(F)cc3)cc2F)[C@H]2C[C@H]2c2cccnc21` [Example 156B, 4-fluoro-1-(4-fluorobenzyl)-N-((1aS,2S,8bR)-4-methyl-3-oxo-1,1a,2,3,4,8b-hexahydrocyclopropa[d]pyrido[2,3-b]azepin-2-yl)-1H-pyrazole-3-carboxamide]: the IC50 at GST-hRIPK1 (8-327) lay within 0.1 to 1000 nM; in assay [1] (Homo sapiens, Jurkat) it was 0.1 to 1000 nM.
Regarding `CN1C(=O)[C@@H](NC(=O)c2nnc(Cc3ccccc3)s2)[C@H]2C[C@H]2c2cccnc21` [Example 120A, 5-benzyl-N-((1aS,2S,8bR)-4-methyl-3-oxo-1,1a,2,3,4,8b-hexahydrocyclopropa[d]pyrido[2,3-b]azepin-2-yl)-1,3,4-thiadiazole-2-carboxamide], the IC50 lay in the range of 0.1 to 1000 nM on GST-hRIPK1 (8-327) and 0.1 to 1000 nM in assay [1] (Homo sapiens, Jurkat).
